# Experimental data from patent publication US10072008B2, “Spiro-isoquinoline-3,4′-piperidine compounds having activity against pain” (LABORATORIOS DEL DR. ESTEVE S.A., priority 2015, dated 2018).
# Target: human σ1 receptor (Homo sapiens (Human), UniProt Q99720)
# Assay: Human σ1 receptor radioligand assay ([3H](+)-pentazocine, transfected HEK-293 membranes)
# Conditions: binding to the σ1 receptor expressed as Ki, [3H](+)-pentazocine 5 nM
# Procedure: Human σ1 Receptor Radioligand Assay
# To investigate binding properties of test compounds to human σ1 receptor, transfected HEK-293 membranes and [^3H](+)-pentazocine (Perkin Elmer, NET-1056), as the radioligand, were used. The assay was carried out with 7 μg of membrane suspension, 5 nM of [^3H](+)-pentazocine in either absence or presence of either buffer or 10 μM Haloperidol for total and non-specific binding, respectively. Binding buffer contained Tris-HCl 50 mM at pH 8. Plates were incubated at 37° C. for 120 minutes. After the incubation period, the reaction mix was then transferred to MultiScreen HTS, FC plates (Millipore), filtered and plates were washed 3 times with ice-cold 10 mM Tris-HCL (pH 7.4). Filters were dried and counted at approximately 40% efficiency in a MicroBeta scintillation counter (Perkin-Elmer) using EcoScint liquid scintillation cocktail
# Sequence of human σ1 receptor (Q99720 whole entry): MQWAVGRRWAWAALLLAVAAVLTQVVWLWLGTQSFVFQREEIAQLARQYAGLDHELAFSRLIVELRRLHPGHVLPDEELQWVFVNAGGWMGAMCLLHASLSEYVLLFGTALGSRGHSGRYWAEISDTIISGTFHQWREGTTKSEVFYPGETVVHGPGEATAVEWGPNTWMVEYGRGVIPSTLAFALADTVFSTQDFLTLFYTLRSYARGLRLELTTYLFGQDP
row,SMILES,Ki [nM]
1,"O=C1NC2(CCN(CCc3ccccc3)CC2)Cc2ccccc21 [Example 1, 1′-(2-Phenylethyl)-2,4-dihydro-1H-spiro[isoquinoline-3,4′-piperidin]-1-one]",< 100
2,"CN1Cc2ccccc2CC12CCN(Cc1ccccc1)CC2 [Example 6, 1′-Benzyl-2-methyl-2,4-dihydro-1H-spiro[isoquinoline-3,4′-piperidine]]",< 100
3,"CN1Cc2ccccc2CC12CCN(CCN1CCOCC1)CC2 [Example 7, 4-(2-(2-Methyl-2,4-dihydro-1H-spiro[isoquinoline-3,4′-piperidine]-1′-yl)ethyl)morpholine]",< 500

# Next, values leading:
row,Ki [nM],SMILES
1,< 100,"c1ccc(CN2CCC3(CC2)Cc2ccccc2CN3)cc1 [Example 4, 1′-benzyl-2,4-dihydro-1H-spiro[isoquinoline-3,4′-piperidine]]"
2,< 100,"O=C1NC2(CCN(Cc3ccccc3)CC2)Cc2ccccc21 [Example 2, 1′-benzyl-2,4-dihydro-1H-spiro[isoquinoline-3,4′-piperidin]-1-one]"
